Consider 3 compounds from patent publication US20080063723A1, “ISOTHIAZOLIN-3-ONE-CONTAINING ANTIMICROBIAL COMPOSITION” (priority 2006, published 2008).

Type in all cases: cell-based
Experiment [1] has as its system two common mold species (Aspergillus and Fusarium). Description: Mold control on treated wood, overall statements for both molds. The protocol:
(§1) To determine the effectiveness of compositions containing an alkyl amine in combination with OIT and/or BBIT, such compositions were compared to compositions containing only an alkyl amine or compositions containing only OIT or BBIT. The efficacy of those compositions was shown by applying the compositions to Southern Yellow Pine (SYP) wood samples.
(§2) After the SYP samples were treated with the particular composition to be evaluated, the samples were placed onto a support in an extra depth Petri-dish.
(§3) A fungal spore suspension of two common mold species (Aspergillus and Fusarium) was spread on top of the wood sample. Fungal hyphal growth on the surface of samples was examined under the microscope once every week. The scale based on mycelial coverage of wood surface is as follows:
(§4) To evaluate the effectiveness of the compositions against common species of mold, compositions containing various levels of BBIT, OIT and C12-alkyl amine or a mixture of these components were tested on SYP wood blocks using the testing protocol discussed above. Specifically, compositions shown in Table 2A were applied to the wood blocks to determine anti-fungal efficacy of the compositions.
It is noted that compositions containing OIT and C12-alkyl amine were obtained by mixing compositions A0 and B0 in the recited ratio. […]

The subject of a further experiment is Fusarium sp. Kind of experiment: Mold growth on treated Southern Yellow Pine wood samples, Fusarium. The procedure: as §1, §2, §3, §4
(§5) It is noted that compositions containing OIT and C12-alkyl amine were obtained by mixing compositions A0 and B0 in the recited ratio. Likewise, compositions containing BBIT and C12-alkyl amine were obtained by mixing compositions A0and C0.

The test system of a further experiment is Aspergillus sp. Kind of experiment: Mold growth on treated Southern Yellow Pine wood samples, Aspergillus. The procedure:
as §1, §2, §3, §4, §5

SMILES strings stand for the structures.

As to `CCCCn1sc2ccccc2c1=O` [BBIT alone, N-n-butyl-1,2-benzisothiazolin-3-one], in experiment [1] (concentration of 80 ppm), the “performance as a moldicide” value was “performed effectively as a moldicide”. In addition, the “Fusarium sp mycelial coverage” value in the experiment with Fusarium sp (ratio 1:0, 80 ppm, 1 week) is recorded as 0 (0%); in the experiment on Fusarium sp (ratio 1:0, 80 ppm, 2 weeks) it was 0 (0%); in the experiment on Fusarium sp (ratio 1:0, 80 ppm, 3 weeks), 1 (<10%); with Fusarium sp (ratio 1:0, 80 ppm, 4 weeks) it was 1 (<10%). In addition, the “Aspergillus sp mycelial coverage” value in the experiment with Aspergillus sp (ratio 1:0, 80 ppm, 1 week) was 0 (0%); with Aspergillus sp (ratio 1:0, 80 ppm, 2 weeks), 0 (0%); with Aspergillus sp (ratio 1:0, 80 ppm, 3 weeks), 0 (0%); with Aspergillus sp (ratio 1:0, 80 ppm, 4 weeks) it was 1 (<10%).
As for `CCCCCCCCCCCCN(C)C` [C12-alkyl amine alone], the “Fusarium sp mycelial coverage” value is 0, 0, 0, 0 (0%) in the experiment on Fusarium sp (Table 4, 1000 ppm, 1 week); 0, 0, 0, 0 (0%) in the experiment on Fusarium sp (Table 4, 1000 ppm, 2 weeks); 0, 0, 0, 0 (0%) with Fusarium sp (Table 4, 1000 ppm, 3 weeks); 0, 0, 0, 0 (0%) in the experiment with Fusarium sp (Table 4, 1000 ppm, 4 weeks); 0, 0, 0, 0 (0%) in the experiment on Fusarium sp (ratio 0:1, 1000 ppm, 1 week); 0, 0, 0, 0 (0%) in the experiment with Fusarium sp (ratio 0:1, 1000 ppm, 2 weeks). Also, the “Fusarium sp mycelial coverage” value was 0, 0, 0, 0 (0%) in the experiment with Fusarium sp (ratio 0:1, 1000 ppm, 3 weeks) and 0, 0, 0, 0 (0%) in the experiment with Fusarium sp (ratio 0:1, 1000 ppm, 4 weeks). Also, the “performance as a moldicide” value is recorded as “performed effectively as a moldicide” in the experiment on Fusarium sp (used alone, 1000 ppm, against Fusarium) and “less effective” in the experiment with Aspergillus sp (used alone, 1000 ppm, against Aspergillus). The “Aspergillus sp mycelial coverage” value in the experiment with Aspergillus sp (Table 4, 1000 ppm, 1 week) is recorded as 0 (0%); with Aspergillus sp (Table 4, 1000 ppm, 2 weeks) it was 2 (˜10-30%); in the experiment on Aspergillus sp (Table 4, 1000 ppm, 3 weeks), 3 (˜30-60%); with Aspergillus sp (Table 4, 1000 ppm, 4 weeks) it was 3 (˜30-60%); in the experiment on Aspergillus sp (ratio 0:1, 1000 ppm, 1 week) it was 0 (0%); in the experiment on Aspergillus sp (ratio 0:1, 1000 ppm, 2 weeks), 2 (˜10-30%). In addition, the “Aspergillus sp mycelial coverage” value in the experiment on Aspergillus sp (ratio 0:1, 1000 ppm, 3 weeks) is on record as 3 (˜30-60%); in the experiment with Aspergillus sp (ratio 0:1, 1000 ppm, 4 weeks), 3 (˜30-60%).
`CCCCCCCCn1sccc1=O` [OIT alone, 2-n-octyl-4-isothiazolin-3-one]: the “performance as a moldicide” value in experiment [1] (concentration of 100 ppm) is recorded as “performed effectively as a moldicide”. Moreover, the “Fusarium sp mycelial coverage” value in the experiment on Fusarium sp (ratio 1:0, 100 ppm, 1 week) is recorded as 0, 0, 0, 0 (0%); in the experiment with Fusarium sp (ratio 1:0, 100 ppm, 2 weeks), 0, 0, 0, 0 (0%); in the experiment on Fusarium sp (ratio 1:0, 100 ppm, 3 weeks), 0, 0, 0, 0 (0%); with Fusarium sp (ratio 1:0, 100 ppm, 4 weeks), 0, 0, 0, 0 (0%). For the same compound, the “Aspergillus sp mycelial coverage” value was 0 (0%) in the experiment on Aspergillus sp (ratio 1:0, 100 ppm, 1 week); 0 (0%) in the experiment on Aspergillus sp (ratio 1:0, 100 ppm, 2 weeks); 1 (<10%) with Aspergillus sp (ratio 1:0, 100 ppm, 3 weeks); 1 (<10%) in the experiment on Aspergillus sp (ratio 1:0, 100 ppm, 4 weeks).
